Patent publication US20130195926A1, “MODULATION OF NITRIC OXIDE SIGNALING TO NORMALIZE TUMOR VASCULATURE” (The General Hospital Corporation, priority 2007, published 2013)

Assays:
U87 gliomas = assay: NO distribution in U87 gliomas by DAF-2T fluorescence (MPLSM); type: in vivo, mice; details: animals treated with L-NMMA compared to D-NMMA
Protocol: FIGS. 3A-B show microfluorographs depicting NO distribution in U87 gliomas grown in the cranial window in Rag-1^−/−. NO production was visualized by means of DAF-2T fluorescence 0, 20, 40 and 60 min after DAF-2 (0.5 mg/body) injection. Left column, micro-angiography with tetramethylrhodamine-dextran (2000 kDa). Middle column, representative DAF-2T microfluorography captured 60 min after the loading of DAF-2 in tumors. Right column, pseudocolor representation of DAF-2T microfluorographs. […] Bars indicate 100 μm. (A) NO distribution in parental U87MG (top row) or nNOS shRNA58-transfected-U87 (bottom row) tumors. […]
(§1) Vascular parameters such as functional vessel density (the total length of perfused microvessels per unit area) and vessel diameter were analyzed by tracing each vessel segment using NIH image 1.63 as described elsewhere (Kashiwagi, S., et al. 2005 J. Clin. Invest. 115, 1816-1827). Tissue distribution of NO was visualized using MPLSM and the NO-sensitive fluorescence probe 4,5-diaminofluorescein (DAF-2) (0.5 mg i.v. Daiichi Pure Chemicals Co. Ltd) as described previously (Kashiwagi, S., et al. 2005 J. Clin. Invest. 115, 1816-1827). NO converts DAF-2 to 4,5-diaminofluorescein triazolium (DAF-2T) increasing fluorescence by a factor of 200. The DAF-2 associated fluorescence images were captured 60 min after i.v. injection. […]

U87MG tumors = assay: Vessel morphology of U87 tumors in the cranial window by intravital microscopy; type: in vivo, mice; details: L-NMMA 7 mg/day by osmotic pump vs D-NMMA, SCID mice
Protocol: (§2) Recombination activating gene 1 (Rag-1^−/−) mice backcrossed to C57BL/6 background or severe combined immunodeficiency (SCID) mice, bred and maintained in an gnotobiotic animal facility, were used. To obtain source tumor tissue, U87 tumor cells in culture (1×10^6 cells) were injected subcutaneously into Rag-1^−/− or SCID mice matching the recipient mice. When the tumor reached about 8 mm in diameter, it was excised after euthanasia and a small piece (about 1 mm^3) of viable tumor tissue was implanted into a cranial window or subcutaneously into the calf area of the right hindlegs of the mice as previously described (Kashiwagi, S., et al. 2005 J. Clin. Invest. 115, 1816-1827; Kozin, S. V., et al. 2001 Cancer Research 61, 39-44). All animal procedures were carried oat following the Public Health Service Policy on Humane Care of Laboratory Animals and approved by the Institutional Animal Care and Use Committee of Massachusetts General Hospital. […]
Angiogenesis and vessel morphology were determined in U87 and GL261 tumors grown in the cranial windows by intravital microscopy using multiphoton laserscanning microscopy (MPLSM) or single photon fluorescence microscopy (SPFM) when tumors reached about 7 mm^2. […] Using MPLSM, five locations with 200-μm thick imaging stack were recorded for each tumor. […]
as §1

10T1/2 cells = assay: Transwell migration of 10T1/2 cells toward HUVECs; type: cell-based
Protocol: FIGS. 13A-C show the role of the NO-sGC-cGMP pathway in perivascular cell recruitment and migration. (A) In bar graph form, cGMP production in cultured 10T1/2 cells in response to NO donor or PDE5 inhibitor. (B) In bar graph form, the migration of 10T1/2 cells in a transwell assay. 10T1/2 cell migration was assessed using Falcon HTS FluoroBlok inserts with 1 μm pores. GFP-expressing 10T1/2 cells were inoculated in the inserts, and HUVECs were inoculated in the outer well. Percent area of transwell filter covered by migrated 10T1/2 cells was determined. Medium only indicates no HUVECs in the outer well. ODQ, T-1032, Sildenafil, or Sildenafil+L-NMMA were added to the medium. *P<0.05 vs. control (HUVEC). (C) Images for transmigrated GFP-10T1/2 cells at the back side of the Fluoroblock insert after 10 hours with control vs. T-1032 treatment.
FIGS. 14A-B show the effect of PI3K inhibition on transwell migration of 10T1/2 cells toward HUVECs. 10T1/2 cell migration was assessed using Falcon HTS FluoroBlock inserts with 1 μm pores. GFP-expressing 10T1/2 cells were inoculated in the inserts and human umbilical vein endothelial cells (HUVECs) were inoculated in the outer well. (A) Images for transmigrated GFP-10T1/2 cells at the back side of the FluoroBlock insert after 16 hours. Images are 865 μm across. (B) Quantification of 10T1/2 cell transwell migration. Data are expressed as percentage relative to the control (HUVEC) migration of the same experimental batch. Medium represents no HUVECs in the outer well. LS294002 10 μM was added. n=4 each. *p<0.05 as compared to the control (HUVEC).
The effect of sGC inhibitor was next examined on 10T1/2 cell migration. […] Finally, the effect of PDE5 inhibitors on 10T1/2 cell migration was examined. […] L-NMMA abolished induction of 10T1/2 cell migration induced by Sildenafil. (Mann-Whitney U-test).
To elucidate the downstream signaling pathway of NO-dependent perivascular cell recruitment, the effect of PI3K inhibitor […] (10 μM) on the transwell 10T1/2 cell migration toward HUVECs was determined (FIG. 14A-B).

nNOS [1] = assay: Western blot of nNOS knockdown in U87 tumors grown in cranial windows; type: in vivo; details: U87 tumors in cranial windows in Rag-1-/- mice
Protocol: The stably transfected cells were selected with 80 μg/ml of hygromycin B. The expression of nNOS protein in U87 tumor cells and tissues was determined by'Western blot analysis. Cultured U87MG cells washed with PBS and U87MG tumors homogenized by a tissue grinder were solubilized in 40 mM Tris-HCl, pH 6.8, 2% SDS, 10% glycerol, 1% β-mercaptoethanol, 0.01% bromophenol blue with one Complete Mini Protease Inhibitor Cocktail tablet (Roche Diagnostics) per 50 ml buffer.
(§3) Equal amounts of 60 micrograms of protein per sample were separated on 7.5% SDS polyacrylamide gels, transferred onto polyvinylidene fluoride membrane (Millipore), incubated with primary antibodies followed by secondary antibodies (the same antibodies used in immunohistochemistry studies. See Immunohistochemistry methods below), and detected using enhanced chemiluminescence (GE Healthcare) by exposure on autoradiography films (Kodak) (Xu, L., et al. 2005 Cancer Res. 65, 5711-5719; Canneliet, P., et al. 1998 Nature 394, 485-490; Xu, L., et al. 2002 Journal of Biological Chemistry 277, 11368-11374 (2002); and Xu, L., et al. 2004 Clinical Cancer Research 10, 701-707).
as §2, with “39-44).” for “39-44). All animal procedures were carried oat following the Public Health Service Policy on Humane Care of Laboratory Animals and approved by the Institutional Animal Care and Use Committee of Massachusetts General Hospital.”
U87 with nNOS shRNA (shRNA58, shRNA97, and shRNA150) were grown in cranial windows in Rag-1^−/− mice. Expression of nNOS in these tumors was determined by Western blot analysis. […]

nNOS [2] = assay: Western blot of nNOS knockdown in cultured nNOS shRNA-transfected U87 cells; type: cell-based, human
Protocol: U87MG (American Type Culture Collection HTB-14) and GL261 (generous gift from Dr. G. Yancey Gillespie at University of Alabama) tumor cells were cultured in Dulbecco's Modified Eagle's Medium with 10% fetal bovine serum at 37° C. in a humidified 5% CO2 incubator. The following short-hairpin RNAs (shRNAs) for nNOS were designed using a commercial service program for small interfering RNA (siRNA) target finder (http://www.ambion.com/techlib/misc/siRNA_finder.html): nNOS-shRNA58, CAAAGAGATCGACACCATC (sense), […] (antisense); nNOSshRNA97, CACGCATGTCTGGAAAGGC (sense), […](antisense); nNOS-shRNA150, GGTCTATCCAATGTCCACA (sense), […] (antisense). The DNA oligonucleotides consist of a 19-nucleotide sense siRNA sequence linked to its reverse complementary antisense siRNA sequence by a short spacer (TTCAAGAGA).
Each DNA oligonucleotide was prepared with nucleotide overhangs with BamHI and HindIII restriction sites added to the 5′ and 3′ end of the DNA oligonucleotides and subcloned into the pSilencer 3.1 H-1-hygro (Ambion) that allows transcription of the shRNA. These expression vectors were stably transfected into U87MG cells using LipofectAMINE 2000 (Invitrogen) following the manufacturer's instruction.
The stably transfected cells were selected with 80 μg/ml of hygromycin B. The expression of nNOS protein in U87 tumor cells and tissues was determined by'Western blot analysis. […]
as §3, with “701-707). […]” for “701-707).”

Compound: CC(=O)O.CNC(=N)NCCC[C@H](N)C(=O)O [L-NMMA, NG-Monomethyl-L-arginine monoacetate]
- DAF-associated fluorescence (NO production) (U87 gliomas): abolished
- vessel density (U87MG tumors): decreased
- vessel diameter (U87MG tumors): increased
- induction of 10T1/2 cell migration induced by Sildenafil (10T1/2 cells; Sildenafil+L-NMMA): abolished

Compound: O=c1cc(N2CCOCC2)oc2c(-c3ccccc3)cccc12 [LY291002]
- transwell 10T1/2 cell migration toward HUVECs (10T1/2 cells; 10 μM, 16 hours): significantly inhibited

Compound: O=c1onc2cnc3ccccc3n12 [ODQ]
- 10T1/2 cell migration to HUVECs (10T1/2 cells; 10μM): significantly reduced

Compound: CCCc1nn(C)c2c(=O)[nH]c(-c3cc(S(=O)(=O)N4CCN(C)CC4)ccc3OCC)nc12 [Sildenafil]
- 10T1/2 cell migration (10T1/2 cells; 40 nM): significantly enhanced

Compound: shRNA97: short-hairpin RNA for nNOS, CACGCATGTCTGGAAAGGC (sense), GCCTTTCCAGACATGCGTGTT (antisense), in pSilencer 3.1 H-1-hygro
- Knockdown efficiency of nNOS in vivo (nNOS [1]): 67%
- Knockdown efficiency of nNOS in vitro (nNOS [2]): 98%
